# What was measured:
# Experiment in all cases: radiometric filter-binding kinase assay, Kinase HotSpot
# Conditions in all cases: compound 0.5 µM; ATP 10 µM
# [1] = biological target: INSRR (human) (UniProt P14616)
# [2] = biological target: NEK9 (human) (UniProt Q8TD19)
# [3] = biological target: NEK1 (human) (UniProt Q96PY6)
# [4] = biological target: CAMK2G (human) (UniProt Q13555)
# [5] = biological target: TGFBR1 (human) (UniProt P36897)
# [6] = biological target: MAPK12 (human) (UniProt P53778)
# [7] = biological target: SRC (human) (UniProt P12931)
# [8] = biological target: TEK (human) (UniProt Q02763)
# [9] = biological target: TNK2 (human) (UniProt Q07912)
# [10] = biological target: ADRBK1 (human) (UniProt P25098)
# [11] = biological target: CAMK4 (human) (UniProt Q16566)
# [12] = biological target: MAP3K9 (human) (UniProt P80192)
# [13] = biological target: MAP3K11 (human) (UniProt Q16584)
# [14] = biological target: CHEK1 (human) (UniProt O14757)
# [15] = biological target: CDK3 CCNE1 (human) (UniProt Q00526+P24864)
# [16] = biological target: PRKX (human) (UniProt P51817)
# [17] = biological target: CSK (human) (UniProt P41240)
# [18] = biological target: AURKC (human) (UniProt Q9UQB9)
# [19] = biological target: PDGFRA (human) (UniProt P16234)
# [20] = biological target: MAP4K2 (human) (UniProt Q12851)
# [21] = biological target: FGR (human) (UniProt P09769)
# [22] = biological target: CDK1 CCNB1 (human) (UniProt P06493+P14635)
# [23] = biological target: IRAK4 (human) (UniProt Q9NWZ3)
# [24] = biological target: MAP2K2 (human) (UniProt P36507)
# [25] = biological target: MAP3K3 (human) (UniProt Q99759)
# [26] = biological target: PIM3 (human) (UniProt Q86V86)
# [27] = biological target: PAK7 (human) (UniProt Q9P286)
# [28] = biological target: PIM2 (human) (UniProt Q9P1W9)
# [29] = biological target: GSK3A (human) (UniProt P49840)
# [30] = biological target: MAP3K2 (human) (UniProt Q9Y2U5)
# [31] = biological target: WNK2 (human) (UniProt Q9Y3S1)
# [32] = biological target: CDK1 CCNA2 (human) (UniProt P06493+P20248)
# [33] = biological target: CDK4 CCND3 (human) (UniProt P30281+P11802)
# [34] = biological target: JAK1 JH1 catalytic (human) (UniProt P23458)
# [35] = biological target: STK33 (human) (UniProt Q9BYT3)
# [36] = biological target: HIPK3 (human) (UniProt Q9H422)
# [37] = biological target: AKT2 (human) (UniProt P31751)
# [38] = biological target: NTRK3 (human) (UniProt Q16288)
# [39] = biological target: SLK (human) (UniProt Q9H2G2)
# [40] = biological target: FRK (human) (UniProt P42685)
# [41] = biological target: STK24 (human) (UniProt Q9Y6E0)
# [42] = biological target: HCK (human) (UniProt P08631)
# Chain of CDK4 CCND3 (human) (P11802 whole entry, looked up): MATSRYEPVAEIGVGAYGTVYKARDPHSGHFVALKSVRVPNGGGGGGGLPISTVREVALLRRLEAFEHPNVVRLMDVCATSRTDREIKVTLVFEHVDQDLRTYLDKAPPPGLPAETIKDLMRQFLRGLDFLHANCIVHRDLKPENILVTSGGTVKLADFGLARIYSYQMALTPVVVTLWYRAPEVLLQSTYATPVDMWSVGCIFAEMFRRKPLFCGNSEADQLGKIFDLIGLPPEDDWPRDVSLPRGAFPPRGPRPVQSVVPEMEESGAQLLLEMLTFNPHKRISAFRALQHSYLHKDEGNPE
# Chain of CDK4 CCND3 (human) (P30281 whole entry, looked up): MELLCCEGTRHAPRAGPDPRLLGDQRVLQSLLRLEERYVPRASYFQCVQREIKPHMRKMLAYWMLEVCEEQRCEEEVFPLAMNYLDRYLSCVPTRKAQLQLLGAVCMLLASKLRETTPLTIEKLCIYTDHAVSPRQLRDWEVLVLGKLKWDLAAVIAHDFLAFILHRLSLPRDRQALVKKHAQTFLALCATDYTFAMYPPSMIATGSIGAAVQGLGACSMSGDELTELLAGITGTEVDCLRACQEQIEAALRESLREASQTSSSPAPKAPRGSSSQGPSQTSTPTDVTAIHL
# Chain of MAP3K2 (human) (Q9Y2U5 whole entry, looked up): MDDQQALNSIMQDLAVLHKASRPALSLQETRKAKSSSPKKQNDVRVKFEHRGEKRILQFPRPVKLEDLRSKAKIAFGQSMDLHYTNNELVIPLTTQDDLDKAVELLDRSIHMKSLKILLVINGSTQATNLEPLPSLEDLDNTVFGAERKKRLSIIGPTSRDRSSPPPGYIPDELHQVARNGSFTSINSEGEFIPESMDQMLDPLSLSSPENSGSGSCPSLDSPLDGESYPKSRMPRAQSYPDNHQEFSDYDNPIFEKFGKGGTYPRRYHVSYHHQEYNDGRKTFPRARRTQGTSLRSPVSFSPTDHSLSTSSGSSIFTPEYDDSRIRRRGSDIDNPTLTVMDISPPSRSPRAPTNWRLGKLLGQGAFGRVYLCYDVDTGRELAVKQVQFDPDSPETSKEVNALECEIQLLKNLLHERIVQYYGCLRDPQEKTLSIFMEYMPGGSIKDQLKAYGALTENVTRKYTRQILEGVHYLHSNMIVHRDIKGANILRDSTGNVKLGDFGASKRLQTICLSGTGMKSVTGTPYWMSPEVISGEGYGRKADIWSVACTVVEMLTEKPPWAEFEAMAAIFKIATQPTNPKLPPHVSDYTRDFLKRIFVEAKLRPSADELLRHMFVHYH
# Chain of PAK7 (human) (Q9P286 whole entry, looked up): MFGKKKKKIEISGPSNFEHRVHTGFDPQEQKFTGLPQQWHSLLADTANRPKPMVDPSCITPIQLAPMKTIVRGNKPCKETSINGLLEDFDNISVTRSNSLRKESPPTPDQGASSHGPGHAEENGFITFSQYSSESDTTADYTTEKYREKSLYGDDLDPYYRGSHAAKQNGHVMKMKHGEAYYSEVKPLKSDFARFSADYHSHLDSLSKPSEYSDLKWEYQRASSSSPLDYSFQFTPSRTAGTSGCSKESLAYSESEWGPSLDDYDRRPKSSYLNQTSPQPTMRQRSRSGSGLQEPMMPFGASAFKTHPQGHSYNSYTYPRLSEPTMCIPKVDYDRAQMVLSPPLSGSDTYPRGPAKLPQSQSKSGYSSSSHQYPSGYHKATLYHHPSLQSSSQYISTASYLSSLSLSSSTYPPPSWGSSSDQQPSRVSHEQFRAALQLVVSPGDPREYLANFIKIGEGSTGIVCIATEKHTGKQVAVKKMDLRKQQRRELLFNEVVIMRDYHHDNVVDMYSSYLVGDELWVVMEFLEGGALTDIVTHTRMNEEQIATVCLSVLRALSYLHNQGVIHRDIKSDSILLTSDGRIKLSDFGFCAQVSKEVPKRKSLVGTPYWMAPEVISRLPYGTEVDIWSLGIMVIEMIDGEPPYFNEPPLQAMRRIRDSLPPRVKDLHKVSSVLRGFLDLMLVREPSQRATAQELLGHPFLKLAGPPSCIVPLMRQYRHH
# Chain of CAMK4 (human) (Q16566 whole entry, looked up): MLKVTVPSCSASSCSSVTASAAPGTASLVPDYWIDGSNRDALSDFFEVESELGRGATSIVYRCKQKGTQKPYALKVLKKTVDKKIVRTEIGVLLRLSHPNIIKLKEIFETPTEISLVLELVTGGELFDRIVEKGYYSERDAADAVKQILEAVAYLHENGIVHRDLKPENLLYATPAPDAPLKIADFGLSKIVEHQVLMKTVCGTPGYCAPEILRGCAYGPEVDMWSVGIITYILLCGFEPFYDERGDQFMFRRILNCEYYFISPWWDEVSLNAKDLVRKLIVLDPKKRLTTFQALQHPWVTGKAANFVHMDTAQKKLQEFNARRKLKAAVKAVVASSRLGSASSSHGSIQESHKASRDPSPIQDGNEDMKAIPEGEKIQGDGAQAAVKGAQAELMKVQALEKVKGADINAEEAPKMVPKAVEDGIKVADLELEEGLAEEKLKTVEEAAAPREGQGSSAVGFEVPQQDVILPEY
# Chain of IRAK4 (human) (Q9NWZ3 whole entry, looked up): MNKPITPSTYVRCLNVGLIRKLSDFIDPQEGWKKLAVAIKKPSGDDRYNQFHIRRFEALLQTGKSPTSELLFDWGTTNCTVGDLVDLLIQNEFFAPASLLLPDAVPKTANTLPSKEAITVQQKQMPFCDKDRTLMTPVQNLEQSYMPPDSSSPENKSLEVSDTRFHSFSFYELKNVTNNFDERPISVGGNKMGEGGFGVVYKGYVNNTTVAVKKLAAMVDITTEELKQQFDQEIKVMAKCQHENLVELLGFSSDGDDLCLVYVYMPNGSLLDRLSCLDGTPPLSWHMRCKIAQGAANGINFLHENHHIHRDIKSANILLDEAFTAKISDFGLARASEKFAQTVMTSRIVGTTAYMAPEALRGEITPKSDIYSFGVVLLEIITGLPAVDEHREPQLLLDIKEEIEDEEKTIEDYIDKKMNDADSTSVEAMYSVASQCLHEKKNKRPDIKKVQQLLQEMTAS
# Chain of SLK (human) (Q9H2G2 whole entry, looked up): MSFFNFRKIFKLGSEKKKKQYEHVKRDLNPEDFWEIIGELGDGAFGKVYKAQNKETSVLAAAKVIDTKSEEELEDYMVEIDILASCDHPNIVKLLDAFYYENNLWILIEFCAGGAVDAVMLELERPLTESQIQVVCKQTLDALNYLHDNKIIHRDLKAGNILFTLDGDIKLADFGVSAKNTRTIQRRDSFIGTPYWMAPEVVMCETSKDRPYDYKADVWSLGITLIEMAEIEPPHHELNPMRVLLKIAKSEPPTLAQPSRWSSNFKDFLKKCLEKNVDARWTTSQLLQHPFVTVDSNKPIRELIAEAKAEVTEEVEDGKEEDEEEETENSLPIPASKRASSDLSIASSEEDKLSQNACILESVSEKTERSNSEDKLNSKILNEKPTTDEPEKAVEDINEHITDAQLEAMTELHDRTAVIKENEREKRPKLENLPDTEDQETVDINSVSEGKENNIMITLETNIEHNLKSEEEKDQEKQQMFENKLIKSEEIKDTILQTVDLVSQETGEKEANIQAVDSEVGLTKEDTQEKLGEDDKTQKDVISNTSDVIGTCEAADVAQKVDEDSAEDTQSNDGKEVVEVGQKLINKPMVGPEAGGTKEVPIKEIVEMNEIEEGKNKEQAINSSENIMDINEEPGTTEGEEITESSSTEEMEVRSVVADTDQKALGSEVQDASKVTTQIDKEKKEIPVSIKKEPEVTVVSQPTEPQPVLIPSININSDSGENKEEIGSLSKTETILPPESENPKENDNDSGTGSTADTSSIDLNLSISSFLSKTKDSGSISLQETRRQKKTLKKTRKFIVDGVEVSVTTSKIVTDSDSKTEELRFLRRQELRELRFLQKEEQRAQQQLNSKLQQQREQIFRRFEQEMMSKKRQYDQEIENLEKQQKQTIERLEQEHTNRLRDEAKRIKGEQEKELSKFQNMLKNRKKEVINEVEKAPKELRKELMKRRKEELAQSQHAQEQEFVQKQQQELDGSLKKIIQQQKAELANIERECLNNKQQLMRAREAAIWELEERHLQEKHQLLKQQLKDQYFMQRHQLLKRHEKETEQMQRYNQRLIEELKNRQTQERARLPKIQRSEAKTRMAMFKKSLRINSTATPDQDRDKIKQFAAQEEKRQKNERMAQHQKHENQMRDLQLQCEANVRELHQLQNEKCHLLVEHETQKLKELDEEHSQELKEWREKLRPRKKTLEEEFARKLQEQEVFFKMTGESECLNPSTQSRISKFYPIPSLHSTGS
# Chain of PIM2 (human) (Q9P1W9 whole entry, looked up): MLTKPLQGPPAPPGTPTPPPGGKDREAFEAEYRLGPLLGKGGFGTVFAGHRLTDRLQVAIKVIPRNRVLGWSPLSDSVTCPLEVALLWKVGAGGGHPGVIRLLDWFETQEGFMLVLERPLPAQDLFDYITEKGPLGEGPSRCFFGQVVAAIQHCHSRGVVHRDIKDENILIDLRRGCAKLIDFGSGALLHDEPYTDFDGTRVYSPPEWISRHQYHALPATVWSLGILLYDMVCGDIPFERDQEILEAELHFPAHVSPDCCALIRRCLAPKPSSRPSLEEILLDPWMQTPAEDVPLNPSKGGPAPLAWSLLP
# Chain of FRK (human) (P42685 whole entry, looked up): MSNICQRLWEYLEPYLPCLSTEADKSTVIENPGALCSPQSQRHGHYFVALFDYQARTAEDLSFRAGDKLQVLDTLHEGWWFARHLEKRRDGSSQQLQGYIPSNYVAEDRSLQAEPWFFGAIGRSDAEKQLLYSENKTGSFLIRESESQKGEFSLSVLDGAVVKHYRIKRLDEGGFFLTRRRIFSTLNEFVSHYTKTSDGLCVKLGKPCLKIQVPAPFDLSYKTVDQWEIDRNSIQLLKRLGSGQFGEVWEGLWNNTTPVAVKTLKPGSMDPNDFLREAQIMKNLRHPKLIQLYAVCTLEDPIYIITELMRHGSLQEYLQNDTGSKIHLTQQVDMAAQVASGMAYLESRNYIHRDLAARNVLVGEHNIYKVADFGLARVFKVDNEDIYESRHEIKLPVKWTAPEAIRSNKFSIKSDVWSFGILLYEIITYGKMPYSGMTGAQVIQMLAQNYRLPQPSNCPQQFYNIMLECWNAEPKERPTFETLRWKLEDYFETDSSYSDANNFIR
smiles,measurement,setting,value
CC(C)N(CCC(=O)c1ccc2ccccc2c1)Cc1ccccc1,residual activity,[1],90.1%
same,residual activity,[2],96.4%
same,residual activity,[3],81.9%
same,residual activity,[4],97.7%
same,residual activity,[5],92.5%
same,residual activity,[6],96.2%
same,residual activity,[7],93.2%
same,residual activity,[8],96.3%
same,residual activity,[9],92.4%
same,residual activity,[10],106%
same,residual activity,[11],98.3%
same,residual activity,[12],104%
same,residual activity,[13],97%
same,residual activity,[14],106%
same,residual activity,[15],91.4%
same,residual activity,[16],99.6%
same,residual activity,[17],88.5%
same,residual activity,[18],97.5%
same,residual activity,[19],96.5%
same,residual activity,[20],98.3%
same,residual activity,[21],94.2%
same,residual activity,[22],104%
same,residual activity,[23],103%
same,residual activity,[24],92.5%
same,residual activity,[25],102%
same,residual activity,[26],105%
same,residual activity,[27],98.5%
same,residual activity,[28],104%
same,residual activity,[29],98.8%
same,residual activity,[30],107%
same,residual activity,[31],107%
same,residual activity,[32],92.9%
same,residual activity,[33],92.4%
same,residual activity,[34],112%
same,residual activity,[35],104%
same,residual activity,[36],115%
same,residual activity,[37],96.5%
same,residual activity,[38],103%
same,residual activity,[39],101%
same,residual activity,[40],95.8%
same,residual activity,[41],96.6%
same,residual activity,[42],94.9%
Cc1ccc(NC2=CC(=O)c3sc(C)nc3C2=O)cc1,residual activity,[1],90%
same,residual activity,[2],99.4%
same,residual activity,[3],76.5%
same,residual activity,[4],90.4%
same,residual activity,[5],94.8%
same,residual activity,[6],99.3%
same,residual activity,[7],79.6%
same,residual activity,[8],95.9%
same,residual activity,[9],94.3%
same,residual activity,[10],96.6%
same,residual activity,[11],98.5%
same,residual activity,[12],86.7%
same,residual activity,[13],101%
same,residual activity,[14],91.1%
same,residual activity,[15],88.5%
same,residual activity,[16],96.8%
same,residual activity,[17],102%
same,residual activity,[18],90.7%
same,residual activity,[19],85.9%
same,residual activity,[20],104%
same,residual activity,[21],85.3%
same,residual activity,[22],69.7%
same,residual activity,[23],124%
same,residual activity,[24],98.8%
same,residual activity,[25],120%
same,residual activity,[26],108%
same,residual activity,[27],77.4%
same,residual activity,[28],103%
same,residual activity,[29],102%
same,residual activity,[30],93.3%
same,residual activity,[31],97.7%
same,residual activity,[32],75.9%
same,residual activity,[33],93.7%
same,residual activity,[34],95.1%
same,residual activity,[35],96.6%
same,residual activity,[36],101%
same,residual activity,[37],91.3%
same,residual activity,[38],94%
same,residual activity,[39],80.6%
same,residual activity,[40],87.9%
same,residual activity,[41],82.8%
same,residual activity,[42],94.4%

# Source: the kinase profiling compilation of Christmann-Franck et al. (2016)
